Test results: the NIST ThermoML archive (doi:10.1007/s10765-007-0223-x)

What was measured:
[1] = xn = mol fraction of the nth substance listed; conditions: 101 kPa, Liquid, x2 = 0; for speed of sound: Single path-length method
[2] = 101 kPa, Liquid; for speed of sound: Single path-length method

CC(C)CC(C)(C)C [2,2,4-trimethylpentane] + COC(C)(C)C
[1]
Conditions	mass density [kg/m3]	speed of sound [m/s]
288.15 K	695.948	1124.3
290.65 K	693.91	1113.8
293.15 K	691.861	1103.3
295.65 K	689.809	1092.7
298.15 K	687.749	1082.2
300.65 K	685.687	1071.7
303.15 K	683.618	1061.3
305.65 K	681.542	1050.9
308.15 K	679.459	1040.5
310.65 K	677.373	1030.2
313.15 K	675.278	1019.9
315.65 K	673.177	1009.7
318.15 K	671.069	999.53
320.65 K	668.954	989.37
323.15 K	666.832	979.25

CC(C)(C)O [2-methylpropan-2-ol] + COC(C)(C)C
[1]
Conditions	mass density [kg/m3]	speed of sound [m/s]
301.65 K	777.762	1109
303.15 K	775.212	1099
305.65 K	772.623	1088.3
308.15 K	770.015	1077.7
310.65 K	767.391	1067.2
313.15 K	764.739	1056.7
315.65 K	762.054	1046.1
318.15 K	759.355	1035.7
320.65 K	756.633	1025.2
323.15 K	753.891	1014.8

Cc1ccccc1 [toluene]
[2]
Conditions	mass density [kg/m3]	speed of sound [m/s]
288.15 K	871.457	1347.5
290.65 K	869.144	1336.3
293.15 K	866.823	1325.3
295.65 K	864.5	1314.3
298.15 K	862.173	1303.4
300.65 K	859.845	1292.6
303.15 K	857.513	1281.9
305.65 K	855.175	1271.2
308.15 K	852.838	1260.5
310.65 K	850.494	1249.8
313.15 K	848.146	1239.2
315.65 K	845.794	1228.6
318.15 K	843.437	1218
320.65 K	841.075	1207.3
323.15 K	838.706	1196.6
